Measurements: patent US5622947A, “Benzoheterocyclic compounds and vasopressin antagonist and oxytocin antagonist compositions containing a benzoheterocyclic compound” (Otsuka Pharmaceutical Co., Ltd., priority 1992, dated 1997)
Counter-ions that a name gives are not always drawn.

Assays:
[1] = molecular target: T1, V1 Recepter (rat liver plasma membrane preparations) (Rattus norvegicus, UniProt P30560); assay: V1 Recepter binding assay; details: [3H]-Arg-vasopressin 2×10^-10 M, 37° C., 10 minutes, pH 8.0, rat liver plasma membrane
T1 construct: rat liver plasma membrane preparations; from tissue; host or cells: rat liver plasma membranes
Procedure, shortened: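 Rat liver plasma membranes incubated with [3H]-Arg-vasopressin (2×10^-10 M) and compound (10^-8 to 10^-4 M) for 10 min at 37° C in Tris-HCl pH 8.0 with MgCl2, EDTA, BSA. Bound label separated by glass-fibre filtration, scintillation counted; nonspecific binding with 10^-6 M vasopressin; IC50 reported.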

[2] = molecular target: T2, V2 Recepter (rat kidney plasma membrane preparations) (Rattus norvegicus, UniProt Q00788); assay: V2 Recepter binding assay; details: [3H]-Arg-vasopressin 4×10^-10 M, 4° C., pH 8.0, rat kidney plasma membrane
T2 construct: rat kidney plasma membrane preparations; from tissue; host or cells: rat kidney plasma membranes
Procedure, shortened: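 Rat kidney plasma membranes incubated with [^3H]-Arg-vasopressin (4×10^-10 M) and test compound (10^-10 to 10^-5 M) for 3 h at 4 °C in 100 mM Tris-HCl pH 8.0 with 5 mM MgCl2, 1 mM EDTA, 0.1% BSA. Bound label by filtration and scintillation counting; nonspecific binding with 10^-6 M vasopressin; IC50 reported.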

[3] = molecular target: T3, Oxytocin receptor (uterin muscle membrane preparation) (Rattus norvegicus, UniProt P70536); assay: Oxytocin receptor binding assay; details: [3H]-oxytocin 10^-9 M, 25°, one hour, pH 8.0, uterin muscle membrane, DES-treated
T3 construct: was homogenized, which was used as a membrane; from tissue; host or cells: uterine muscle membranes from diethylstilbestrol-treated animals
T3 sequence (P70536 1-388): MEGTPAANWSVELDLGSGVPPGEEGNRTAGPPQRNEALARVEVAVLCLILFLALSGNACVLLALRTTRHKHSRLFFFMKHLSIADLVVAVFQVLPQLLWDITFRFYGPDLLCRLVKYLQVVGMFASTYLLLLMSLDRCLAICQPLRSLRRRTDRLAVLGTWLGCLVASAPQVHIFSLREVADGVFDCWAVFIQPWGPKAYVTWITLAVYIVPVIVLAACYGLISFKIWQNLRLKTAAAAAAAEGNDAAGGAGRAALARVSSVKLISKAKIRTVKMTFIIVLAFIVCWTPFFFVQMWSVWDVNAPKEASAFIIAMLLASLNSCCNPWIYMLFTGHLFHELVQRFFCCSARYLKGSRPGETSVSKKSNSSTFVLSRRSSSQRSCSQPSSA
Procedure, shortened: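 Rat uterine membranes (0.2 mg; DES-primed day before) incubated 1 h at 25° with [3H]-oxytocin (10^-9 M) and compound (10^-9 to 10^-5 M) in 100 mM Tris-HCl pH 8.0, 5 mM MgCl2, 1 mM EDTA, 0.1% BSA. Filter-bound radioactivity counted; nonspecific with 5×10^-6 M oxytocin; IC50 reported.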

T2 sequence (Q00788 whole entry): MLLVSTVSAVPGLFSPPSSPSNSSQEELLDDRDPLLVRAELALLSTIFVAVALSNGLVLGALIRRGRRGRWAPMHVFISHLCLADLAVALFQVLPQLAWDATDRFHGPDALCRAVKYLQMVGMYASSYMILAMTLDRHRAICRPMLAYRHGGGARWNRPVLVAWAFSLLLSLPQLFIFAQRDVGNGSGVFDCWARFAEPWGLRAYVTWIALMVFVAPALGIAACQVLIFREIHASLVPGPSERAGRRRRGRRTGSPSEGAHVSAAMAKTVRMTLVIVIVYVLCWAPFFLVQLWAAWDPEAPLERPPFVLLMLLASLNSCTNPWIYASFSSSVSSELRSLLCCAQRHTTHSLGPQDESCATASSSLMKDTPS
T1 sequence (P30560 whole entry): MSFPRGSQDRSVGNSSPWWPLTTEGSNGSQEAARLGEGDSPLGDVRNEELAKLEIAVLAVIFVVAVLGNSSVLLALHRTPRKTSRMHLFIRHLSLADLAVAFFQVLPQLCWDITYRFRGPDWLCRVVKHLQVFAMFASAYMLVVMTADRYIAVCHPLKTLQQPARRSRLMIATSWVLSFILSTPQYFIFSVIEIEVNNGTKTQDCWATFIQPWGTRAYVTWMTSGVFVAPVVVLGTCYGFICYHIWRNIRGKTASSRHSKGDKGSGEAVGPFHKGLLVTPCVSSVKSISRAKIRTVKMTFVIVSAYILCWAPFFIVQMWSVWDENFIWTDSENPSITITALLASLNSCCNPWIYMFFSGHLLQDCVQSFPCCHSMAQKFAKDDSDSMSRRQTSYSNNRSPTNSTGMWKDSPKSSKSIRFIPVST

COc1cc(NC(=O)c2ccccc2Cl)ccc1C(=O)N1CCCC(CC(=O)N2CCN(CC(O)CNC(C)C)CC2)c2cc(Cl)ccc21 (stereo not drawn) [Example 87, 5-[4-(2-Hydroxy-3-isopropylaminopropyl)-1-piperazinyl]carbonylmethyl-7-chloro-1-[2-methoxy-4-(2-chlorobenzoylamino)benzoyl]-2,3,4,5-tetrahydro-1H-benzoazepine]
IC50 [1]: 7 nM | IC50 [2]: 2 nM | IC50 [3]: 70 nM

COc1cc(NC(=O)c2ccccc2Cl)ccc1C(=O)N1CCCC(OCCNCc2ccccc2)c2cc(Cl)ccc21 (stereo not drawn) [Example 150, 5-(2-Benzylaminoethoxy)-7-chloro-1-[2-methoxy-4-(2-chlorobenzoylamino)benzoyl]-2,3,4,5-tetrahydro-1H-benzoazepine]
IC50 [1]: 16 nM | IC50 [2]: 9 nM | IC50 [3]: 471 nM

COc1cc(C(=O)N2CCCC(CC(=O)NCCN3CCOCC3)c3cc(Cl)ccc32)ccc1NC(=O)c1ccccc1Br (stereo not drawn) [Example 164, 5-(2-Morpholinoethyl)aminocarbonylmethyl-7-chlorolo-[3-methoxy-4-(2-bromobenzoylamino)-benzoyl]-2,3,4,5-tetrahydro-1H-benzoazepine]
IC50 [1]: 2.6 nM | IC50 [2]: 8.5 nM | IC50 [3]: 41 nM

COc1cc(NC(=O)c2ccccc2Cl)ccc1C(=O)N1CCCC(CC(=O)N2CCCN(C)CC2)c2cc(Cl)ccc21 (stereo not drawn) [Example 125, 5-(4-Methyl-1-homopiperazinyl)carbonylmethyl-7-chloro-1-[2-methoxy-4-(2-chlorobenzoylamino)benzoyl]-2,3,4,5-tetrahydro-1H-benzoazepine]
IC50 [1]: 8 nM | IC50 [2]: 4 nM | IC50 [3]: 37 nM

COc1cc(NC(=O)c2ccccc2Cl)ccc1C(=O)N1CCCC(CC(=O)NCCN(C)CCO)c2cc(Cl)ccc21 (stereo not drawn) [Example 160, 5-{2-[N-(2-Hydroxyethyl)-N-methylamino]ethyl}-aminocarbonylmethyl-7-chloro-1-[2-methoxy-4-(2-chlorobenzoylamino)benzoyl]-2,3,4,5-tetrahydro-1H-benzoazepine]
IC50 [1]: 6 nM | IC50 [2]: 3.3 nM | IC50 [3]: 84 nM

C=CCN1CCN(C(=O)CC2CCCN(C(=O)c3ccc(NC(=O)c4ccccc4Cl)cc3OC)c3ccc(Cl)cc32)CC1 (stereo not drawn) [Example 81, 5-(4-Allyl-1-piperazinyl)carbonylmethyl-7-chloro-1-[2-methoxy-4-(2-chlorobenzoylamino)benzoyl]-2,3,4,5-tetrahydro-1H-benzoazepine]
IC50 [1]: 23 nM | IC50 [2]: 10 nM | IC50 [3]: 100 nM

COc1cc(NC(=O)c2ccccc2Cl)ccc1C(=O)N1CCCC(OCC[S+]([O-])c2ccncc2)c2cc(Cl)ccc21 (stereo not drawn) [Example 143, 5-[2-(4-Pyridyl)sulfinylethoxy]-7-chloro-1-[2-methoxy-4-(2-chlorobenzoylamino)benzoyl]-2,3,4,5-tetrahydro-1H-benzoazepine]
IC50 [1]: 13 nM | IC50 [2]: 22 nM | IC50 [3]: 200 nM

COc1cc(NC(=O)c2ccccc2Cl)ccc1C(=O)N1CCCC(OCCn2ccnc2)c2cc(Cl)ccc21 (stereo not drawn) [Example 171, 5-[2-(1-Imidazolyl)ethoxy]-7-chloro-1-[2-methoxy-4-(2-chlorobenzoylamino)benzoyl]-2,3,4,5-tetrahydro-1H-benzoazepine]
IC50 [1]: 110 nM | IC50 [2]: 15 nM | IC50 [3]: 317 nM

CCN1CCN(C(=O)CCOC2CCCN(C(=O)c3ccc(N4Cc5ccccc5C4=O)cc3)c3ccc(Cl)cc32)CC1 (stereo not drawn) [Example 132, 5-(4-Ethyl-1-piperazinyl)carbonylethoxy-7-chloro-1-[4-(1-oxoisoindolin-2-yl)benzoyl]-2,3,4,5-tetrahydro-1H-benzoazepine]
IC50 [1]: 90 nM | IC50 [2]: 120 nM | IC50 [3]: 478 nM

COc1cc(NC(=O)c2ccccc2Cl)ccc1C(=O)N1CCCC(OCCS(=O)(=O)c2ccncc2)c2cc(Cl)ccc21 (stereo not drawn) [Example 142, 5-[2-(4-Pyridyl)sulfonylethoxy]-7-chloro-1-[2-methoxy-4-(2-chlorobenzoylamino)benzoyl]-2,3,4,5-tetrahydro-1H-benzoazepine]
IC50 [1]: 98 nM | IC50 [2]: 38 nM | IC50 [3]: 1130 nM

COc1cc(C(=O)N2CCCC(OCC(=O)NCCN3CCCCC3)c3cc(Cl)ccc32)ccc1NC(=O)c1ccccc1Br (stereo not drawn) [Example 167, 5-[2-(1-Piperidinyl)ethyl]aminocarbonylmethoxy-7-chloro-1-[3-methoxy-4-(2-bromobenzoylamino)benzoyl]-2,3,4,5-tetrahydro-1H-benzoazepine]
IC50 [1]: 5.5 nM | IC50 [2]: 8.5 nM | IC50 [3]: 177 nM

COc1cc(NC(=O)c2ccccc2Cl)ccc1C(=O)N1CCCC(OCCNS(C)(=O)=O)c2cc(Cl)ccc21 (stereo not drawn) [Example 172, 5-(2-Methanesulfonylaminoethoxy)-7-chloro-1-[2-methoxy-4-(2-chlorobenzoylamino)benzoyl]-2,3,4,5-tetrahydro-1H-benzoazepine]
IC50 [1]: 5 nM | IC50 [2]: 3.9 nM | IC50 [3]: 133 nM

COc1cc(NC(=O)c2ccccc2Cl)ccc1C(=O)N1CCCC(CC(=O)NCc2cnc(C)cn2)c2cc(Cl)ccc21 (stereo not drawn) [Example 134, 5-(5-Methyl-2-pyrazinyl)methylaminocarbonylmethyl-7-chloro-1-[2-methoxy-4-(2-chlorobenzoylamino)benzoyl]-2,3,4,5-tetrahydro-1H-benzoazepine]
IC50 [1]: 12 nM | IC50 [2]: 4 nM | IC50 [3]: 96 nM

COc1cc(NC(=O)c2ccccc2Cl)ccc1C(=O)N1CCCC(CC(=O)N(C)CCO)c2cc(Cl)ccc21 (stereo not drawn) [Example 88, 5-[N-Methyl-N-(2-hydroxyethyl)amino]-carbonylmethyl-7-chloro-1-[2-methoxy-4-(2-chlorobenzoylamino)benzoyl]-2,3,4,5-tetrahydo-1H-benzoazepine]
IC50 [1]: 10 nM | IC50 [2]: 2 nM | IC50 [3]: 58 nM

C#CCNCCOC1CCCN(C(=O)c2ccc(NC(=O)c3ccccc3Cl)cc2OC)c2ccc(Cl)cc21 (stereo not drawn) [Example 170, 5-(2-Propargylaminoethoxy)-7-chloro-1-[2-methoxy-4-(2-chlorobenzoylamino)benzoyl]-2,3,4,5-tetrahydro-1H-benzoazepine.cndot.hydrochloride]
IC50 [1]: 24 nM | IC50 [2]: 7 nM | IC50 [3]: 416 nM

CCOC(=O)N1CCN(CCC2CCCN(C(=O)c3ccc(NC(=O)c4ccccc4Cl)cc3OC)c3ccc(Cl)cc32)CC1 (stereo not drawn) [Example 147, 5-[2-(4-Ethoxycarbonyl-1-piperazinyl)ethyl]-7-chloro-1-[2-methoxy-4-(2-chlorobenzoylamino)-benzoyl]-2,3,4,5-tetrahydro-1H-benzoazepine]
IC50 [1]: 39 nM | IC50 [2]: 14 nM | IC50 [3]: 504 nM

COc1cc(NC(=O)c2ccccc2Cl)ccc1C(=O)N1CCCC(CC(=O)NCCN2CCCCC2)c2cc(Cl)ccc21 (stereo not drawn) [Example 156, 5-[2-(1-Piperidinyl)ethyl]aminocarbonylmethyl-7-chloro-1-[2-methoxy-4-(2-chlorobenzoylamino)benzoyl]-2,3,4,5-tetrahydro-1H-benzoazepine]
IC50 [1]: 5.5 nM | IC50 [2]: 3 nM | IC50 [3]: 70 nM

COc1cc(NC(=O)c2ccccc2Cl)ccc1C(=O)N1CCCC(CC(=O)N2CCN(CCO)CC2)c2cc(Cl)ccc21 (single isomer, unassigned) [Example 85, 5-[4-(2-Hydroxyethyl)-1-piperazinyl]-carbonylmethyl-7-chloro-1-[2-methoxy-4-(2-chlorobenzoylamino)benzoyl]-2,3,4,5-tetrahydro-1H-benzoazepine]
IC50 [1]: 16 nM | IC50 [2]: 8 nM | IC50 [3]: 94 nM

COc1cc(NC(=O)c2ccccc2Cl)ccc1C(=O)N1CCCC(CC(=O)N2CCN(CC(=O)N3CCCC3)CC2)c2cc(Cl)ccc21 (stereo not drawn) [Example 157, 5-{4-[(1-Pyrrolidynyl)carbonylmethyl]-1-piperazinyl}carbonylmethyl-7-chloro-1-[2-methoxy-4-(2-chlorobenzoylamino)benzoyl]-2,3,4,5-tetrahydro-1H-benzoazepine]
IC50 [1]: 16 nM | IC50 [2]: 7.3 nM | IC50 [3]: 47 nM

COc1cc(NC(=O)c2ccccc2Cl)ccc1C(=O)N1CCCC(CC(=O)Nc2ccccc2Cl)c2cc(Cl)ccc21 (stereo not drawn) [Example 158, 5-(2-Chloroanilino)carbonylmethyl-7-chloro-1-[2-methoxy-4-(2-chlorobenzoylamino)benzoyl]-2,3,4,5-tetrahydro-1H-benzoazepine]
IC50 [1]: 31 nM | IC50 [2]: 14 nM | IC50 [3]: 130 nM
